Assay results from patent US20230157952A1, “METHOD FOR IMPROVING THE STABILITY OF A PHARMACEUTICAL COMPOSITION COMPRISING A HIGH PENETRATION DRUG, AND THE PHARMACEUTICAL COMPOSITION OBTAINED THEREFROM” (Techfields Inc., priority 2020, published 2023).

Test: Effect of concentration on the stability of the solution (purity over time)
Details: for Stability of common ester over the concentrations tested: 0.01% to 10% (or higher) in 50% ethanol at 25° C.; for Purity (%) at Day 3 / Purity (%) at Day 7 / Purity (%) at hr 0 / Purity (%) at hr 24 / Purity(%) at Day 14 / Purity(%) at Day 21 / Purity(%) at Day 28 / Purity (%) at hr 2: 25° C.

## CC(C)OC(=O)C(N)Cc1ccccc1 (stereo not shown) [Isopropyl 2-amino-3-phenylpropanoate, reference compound]
  Stability of common ester over the concentrations tested: quite stable
0.01 wt % in 50% ethanol
  Purity (%) at Day 3: 97.4%
  Purity (%) at Day 7: 97.1%
  Purity (%) at hr 0: 98.4%
  Purity (%) at hr 24: 98.3%
  Purity(%) at Day 14: 96.5%
  Purity(%) at Day 21: 95.9%
  Purity(%) at Day 28: 95.1%
0.1 wt % in 50% ethanol
  Purity (%) at Day 3: 97.6%
  Purity (%) at Day 7: 97.3%
  Purity (%) at hr 0: 98.5%
  Purity (%) at hr 24: 98.4%
  Purity(%) at Day 14: 96.8%
  Purity(%) at Day 21: 96.5%
  Purity(%) at Day 28: 95.7%
1 wt % in 50% ethanol
  Purity (%) at Day 3: 97.9%
  Purity (%) at Day 7: 97.6%
  Purity (%) at hr 0: 98.7%
  Purity (%) at hr 24: 98.5%
  Purity(%) at Day 14: 97.2%
  Purity(%) at Day 21: 96.8%
  Purity(%) at Day 28: 96.1%
3 wt % in 50% ethanol
  Purity (%) at Day 3: 98.2%
  Purity (%) at Day 7: 97.8%
  Purity (%) at hr 0: 98.7%
  Purity (%) at hr 24: 98.6%
  Purity(%) at Day 14: 97.4%
  Purity(%) at Day 21: 97.0%
  Purity(%) at Day 28: 96.5%
5 wt % in 50% ethanol
  Purity (%) at Day 3: 98.5%
  Purity (%) at Day 7: 98.4%
  Purity (%) at hr 0: 98.7%
  Purity (%) at hr 24: 98.6%
  Purity(%) at Day 14: 98.2%
  Purity(%) at Day 21: 97.8%
  Purity(%) at Day 28: 97.1%
10 wt % in 50% ethanol
  Purity (%) at Day 3: 98.6%
  Purity (%) at Day 7: 98.5%
  Purity (%) at hr 0: 98.8%
  Purity (%) at hr 24: 98.7%
  Purity(%) at Day 14: 98.3%
  Purity(%) at Day 21: 97.9%
  Purity(%) at Day 28: 97.3%

## CC(C)OC(=O)c1ccccc1 [Isopropyl benzoate, reference compound]
  Stability of common ester over the concentrations tested: very stable
0.01 wt % in 50% ethanol
  Purity (%) at Day 3: 98.1%
  Purity (%) at Day 7: 98.3%
  Purity (%) at hr 0: 98.4%
  Purity (%) at hr 24: 98.3%
  Purity(%) at Day 14: 98.2%
  Purity(%) at Day 28: 98.2%
0.1 wt % in 50% ethanol
  Purity (%) at Day 3: 98.4%
  Purity (%) at Day 7: 98.4%
  Purity (%) at hr 0: 98.4%
  Purity (%) at hr 24: 98.5%
  Purity(%) at Day 14: 98.3%
  Purity(%) at Day 28: 98.3%
1 wt % in 50% ethanol
  Purity (%) at Day 3: 98.5%
  Purity (%) at Day 7: 98.4%
  Purity (%) at hr 0: 98.5%
  Purity (%) at hr 24: 98.4%
  Purity(%) at Day 14: 98.3%
  Purity(%) at Day 28: 98.3%
3 wt % in 50% ethanol
  Purity (%) at Day 3: 98.4%
  Purity (%) at Day 7: 98.4%
  Purity (%) at hr 0: 98.4%
  Purity (%) at hr 24: 98.6%
  Purity(%) at Day 14: 98.4%
  Purity(%) at Day 28: 98.4%
5 wt % in 50% ethanol
  Purity (%) at Day 3: 98.7%
  Purity (%) at Day 7: 98.4%
  Purity (%) at hr 0: 98.5%
  Purity (%) at hr 24: 98.4%
  Purity(%) at Day 14: 98.4%
  Purity(%) at Day 28: 98.4%
10 wt % in 50% ethanol
  Purity (%) at Day 3: 98.4%
  Purity (%) at Day 7: 98.4%
  Purity (%) at hr 0: 98.5%
  Purity (%) at hr 24: 98.8%
  Purity(%) at Day 14: 98.4%
  Purity(%) at Day 28: 98.4%

## CC(C)(C)OC(=O)C(N)Cc1ccccc1 (stereo not shown) [t-Butyl 2-amino-3-phenylpropanoate, reference compound]
  Stability of common ester over the concentrations tested: not stable
0.01 wt % in 50% ethanol
  Purity (%) at Day 3: 92.1%
  Purity (%) at Day 7: 89.4%
  Purity (%) at hr 0: 98.0%
  Purity (%) at hr 24: 96.1%
  Purity(%) at Day 14: 83.0%
  Purity(%) at Day 21: 60.2%
  Purity(%) at Day 28: 35.2%
0.1 wt % in 50% ethanol
  Purity (%) at Day 3: 93.1%
  Purity (%) at Day 7: 91.4%
  Purity (%) at hr 0: 98.0%
  Purity (%) at hr 24: 96.4%
  Purity(%) at Day 14: 86.1%
  Purity(%) at Day 21: 64.1%
  Purity(%) at Day 28: 41.0%
1 wt % in 50% ethanol
  Purity (%) at Day 3: 93.9%
  Purity (%) at Day 7: 92.2%
  Purity (%) at hr 0: 98.1%
  Purity (%) at hr 24: 96.7%
  Purity(%) at Day 14: 88.9%
  Purity(%) at Day 21: 70.9%
  Purity(%) at Day 28: 48.9%
3 wt % in 50% ethanol
  Purity (%) at Day 3: 94.6%
  Purity (%) at Day 7: 92.4%
  Purity (%) at hr 0: 98.2%
  Purity (%) at hr 24: 96.9%
  Purity(%) at Day 14: 89.5%
  Purity(%) at Day 21: 72.4%
  Purity(%) at Day 28: 50.4%
5 wt % in 50% ethanol
  Purity (%) at Day 3: 94.8%
  Purity (%) at Day 7: 93.1%
  Purity (%) at hr 0: 98.1%
  Purity (%) at hr 24: 97.0%
  Purity(%) at Day 14: 90.0%
  Purity(%) at Day 21: 73.0%
  Purity(%) at Day 28: 56.9%
10 wt % in 50% ethanol
  Purity (%) at Day 3: 95.9%
  Purity (%) at Day 7: 93.9%
  Purity (%) at hr 0: 98.2%
  Purity (%) at hr 24: 97.6%
  Purity(%) at Day 14: 91.0%
  Purity(%) at Day 21: 74.9%
  Purity(%) at Day 28: 59.2%

## CC(C)(C)OC(=O)c1ccccc1 [t-Butyl benzoate, reference compound]
  Stability of common ester over the concentrations tested: very unstable
0.01 wt % in 50% ethanol
  Purity (%) at Day 3: 0.0%
  Purity (%) at Day 7: 0.0%
  Purity (%) at hr 0: 97.5%
  Purity (%) at hr 2: 25.2%
  Purity (%) at hr 24: 0.0%
  Purity(%) at Day 14: 0.0%
0.1 wt % in 50% ethanol
  Purity (%) at Day 3: 0.0%
  Purity (%) at Day 7: 0.0%
  Purity (%) at hr 0: 97.4%
  Purity (%) at hr 2: 31.2%
  Purity (%) at hr 24: 0.0%
  Purity(%) at Day 14: 0.0%
1 wt % in 50% ethanol
  Purity (%) at Day 3: 0.0%
  Purity (%) at Day 7: 0.0%
  Purity (%) at hr 0: 97.5%
  Purity (%) at hr 2: 41.3%
  Purity (%) at hr 24: 1.6%
  Purity(%) at Day 14: 0.0%
3 wt % in 50% ethanol
  Purity (%) at Day 3: 1.1%
  Purity (%) at Day 7: 0.0%
  Purity (%) at hr 0: 97.4%
  Purity (%) at hr 2: 52.3%
  Purity (%) at hr 24: 15.4%
  Purity(%) at Day 14: 0.0%
5 wt % in 50% ethanol
  Purity (%) at Day 3: 3.6%
  Purity (%) at Day 7: 0.0%
  Purity (%) at hr 0: 97.4%
  Purity (%) at hr 2: 56.3%
  Purity (%) at hr 24: 20.3%
  Purity(%) at Day 14: 0.0%
10 wt % in 50% ethanol
  Purity (%) at Day 3: 5.1%
  Purity (%) at Day 7: 0.0%
  Purity (%) at hr 0: 97.8%
  Purity (%) at hr 2: 65.5%
  Purity (%) at hr 24: 25.1%
  Purity(%) at Day 14: 0.0%
